Test results published in patent publication US12357645B2, “Drug combination for treatment of gastric cancer” (priority 2023, dated 2025).

Tested on: patients with advanced gastric cancer (AGC)
Assay: Phase 1 study of minnelide prodrug alone or with paclitaxel in advanced gastric cancer (NCT 05566834): safety, DLT, MTD, adverse events

In the case of `CC(C)[C@]12O[C@H]1[C@@H]1O[C@]13[C@]1(O[C@H]1C[C@H]1C4=C(CC[C@@]13C)C(=O)OC4)[C@@H]2OCOP(=O)([O-])[O-].[Na+].[Na+]` [minnelide prodrug, disodium; [(1S,2S,4S,5S,7S,8R,9R,11S, 13S)-1-methyl-17-oxo-7-propan-2-yl-3,6,10,16-tetraoxaheptacyclo [11.7.0.0^2,4.0^2,9.0^5,7.0^9,11.0^14,18]icos-14 (18)-en-8-yl]oxymethyl phosphate], the “Minnelide-related AE Overall, Any” value (Total Regimens A-C, n = 36) is reported as 27 (75.0) n (%), the “Minnelide-related AE Overall, ≥Gr 3” value (Total Regimens A-C, n = 36) is reported as 10 (27.8) n (%) and the “Minnelide-related AE Pruritus, Any” value (Total Regimens A-C, n = 36) is reported as 1 (2.8)/— n (%). For the same compound, the “Minnelide-related AE Vomiting, Any” value (Total Regimens A-C, n = 36) was 3 (8.3)/— n (%), the “TRAE Abdominal pain, Any” value (Total Regimens A-C, n = 36) was 16 (44.4) n (%) and the “TRAE Abdominal pain, ≥Gr 3” value (Total Regimens A-C, n = 36) was 4 (11.1) n (%). For the same compound, the “TRAE Alopecia, Any” value (Total Regimens A-C, n = 36) was 2 (5.6)/— n (%), the “TRAE Anemia, Any” value (Total Regimens A-C, n = 36) was 5 (13.9) n (%) and the “TRAE Anemia, ≥Gr 3” value (Total Regimens A-C, n = 36) was 3 (8.3) n (%). For the same compound, the “TRAE Annualar scaly plaques, Any” value (Total Regimens A-C, n = 36) was 1 (2.8)/— n (%), the “TRAE Anorexia, Any” value (Total Regimens A-C, n = 36) was 18 (50.0)/— n (%) and the “TRAE Azotemia, Any” value (Total Regimens A-C, n = 36) was 2 (5.6)/— n (%). For the same compound, the “TRAE Cancer pain, Any” value (Total Regimens A-C, n = 36) was 3 (8.3) n (%), the “TRAE Cancer pain, ≥Gr 3” value (Total Regimens A-C, n = 36) was 1 (2.8) n (%) and the “TRAE Cancer progression, Any” value (Total Regimens A-C, n = 36) was 4 (11.1)/4 (11.1) n (%). The “TRAE Cancer progression, ≥Gr 3” value (Total Regimens A-C, n = 36) was 4 (11.1)/4 (11.1) n (%), the “TRAE Constipation, Any” value (Total Regimens A-C, n = 36) was 3 (8.3)/— n (%) and the “TRAE Decreased vision, Any” value (Total Regimens A-C, n = 36) was 1 (2.8)/— n (%). The “TRAE Depression, Any” value (Total Regimens A-C, n = 36) was 1 (2.8)/— n (%), the “TRAE Dyspepsia, Any” value (Total Regimens A-C, n = 36) was 2 (5.6)/— n (%) and the “TRAE Dysuria, Any” value (Total Regimens A-C, n = 36) was 1 (2.8)/— n (%). The “TRAE Edema, Any” value (Total Regimens A-C, n = 36) was 1 (2.8)/— n (%), the “TRAE Fatigue, Any” value (Total Regimens A-C, n = 36) was 7 (19.4)/— n (%) and the “TRAE Gastric stenosis, Any” value (Total Regimens A-C, n = 36) was 1 (2.8)/1 (2.8) n (%). The “TRAE Gastric stenosis, ≥Gr 3” value (Total Regimens A-C, n = 36) was 1 (2.8)/1 (2.8) n (%), the “TRAE General weakness, Any” value (Total Regimens A-C, n = 36) was 2 (5.6)/— n (%) and the “TRAE Headache, Any” value (Total Regimens A-C, n = 36) was 1 (2.8)/— n (%). The “TRAE Hypercalcemia, Any” value (Total Regimens A-C, n = 36) was 1 (2.8)/1 (2.8) n (%), the “TRAE Hypercalcemia, ≥Gr 3” value (Total Regimens A-C, n = 36) was 1 (2.8)/1 (2.8) n (%) and the “TRAE Hypophosphatemi, Any” value (Total Regimens A-C, n = 36) was 1 (2.8)/1 (2.8) n (%). The “TRAE Hypophosphatemi, ≥Gr 3” value (Total Regimens A-C, n = 36) was 1 (2.8)/1 (2.8) n (%), the “TRAE Jaundice, Any” value (Total Regimens A-C, n = 36) was 1 (2.8)/1 (2.8) n (%) and the “TRAE Jaundice, ≥Gr 3” value (Total Regimens A-C, n = 36) was 1 (2.8)/1 (2.8) n (%). The “TRAE Mucositis, Any” value (Total Regimens A-C, n = 36) was 1 (2.8)/— n (%), the “TRAE Nausea, Any” value (Total Regimens A-C, n = 36) was 12 (33.3) n (%) and the “TRAE Nausea, ≥Gr 3” value (Total Regimens A-C, n = 36) was 2(5.6) n (%). The “TRAE Neutropenia, Any” value (Total Regimens A-C, n = 36) was 11 (30.6) n (%), the “TRAE Neutropenia, ≥Gr 3” value (Total Regimens A-C, n = 36) was 7 (19.4) n (%) and the “TRAE Overall, Any” value (Total Regimens A-C, n = 36) was 34 (94.4) n (%). For the same compound, the “TRAE Overall, ≥Gr 3” value (Total Regimens A-C, n = 36) was 16 (44.4) n (%), the “TRAE Pruritus, Any” value (Total Regimens A-C, n = 36) was 1 (2.8)/— n (%) and the “TRAE Rash, Any” value (Total Regimens A-C, n = 36) was 1 (2.8)/— n (%). The “TRAE Sore throat, Any” value (Total Regimens A-C, n = 36) was 1 (2.8)/— n (%), the “TRAE Tachycardia, Any” value (Total Regimens A-C, n = 36) was 2 (5.6)/— n (%) and the “TRAE Tuberculosis, Any” value (Total Regimens A-C, n = 36) was 1 (2.8)/— n (%). For the same compound, the “TRAE Urinary tract infection, Any” value (Total Regimens A-C, n = 36) was 2 (5.6)/— n (%), the “TRAE Vomiting, Any” value (Total Regimens A-C, n = 36) was 5 (13.9) n (%) and the “TRAE Vomiting, ≥Gr 3” value (Total Regimens A-C, n = 36) was 1 (2.8) n (%). For the same compound, the “TRAE Weight loss, Any” value (Total Regimens A-C, n = 36) was 1 (2.8)/— n (%), the TRAE neutropenia (all regimens, 11/36) was 30.6% and the TRAE nausea (all regimens, 12/36) was 33.3%. For the same compound, the TRAE abdominal pain (all regimens, 16/36) was 44.4%, the “TRAEs above Grade 3, share of patients” value (all regimens, 16 patients of 36) was 44.4% and the TRAE anorexia (all regimens, 18/36) was 50%. The “Grade 5 AEs caused by gastric cancer progression, number” value (all regimens, 36 patients) was “four and Four”, the “Grade 3 or higher AE with minnelide prodrug: abdominal pain” value (all regimens, n = 36) was 11.1% and the “Grade 3 or higher AE with minnelide prodrug: nausea” value (all regimens, n = 36) was 5.6%. The “Grade 3 or higher AE with minnelide prodrug: neutropenia” value (all regimens, n = 36) was 19.4%, the “Grade 3 or higher AEs with minnelide prodrug, overall” value (all regimens, n = 36) was 27.8% and the “TRAE above Grade 3: abdominal pain” value (all regimens, n = 36) was 11.1%. The “TRAE above Grade 3: neutropenia” value (all regimens, n = 36) was 19.4%, the “drop in blood counts: resolution after withholding the drug” value (in vivo) was 4 to 8 days and the “Grade ≥3 abdominal pain” value (monotherapy group) was 18.2%. The “Grade ≥3 nausea” value (monotherapy group) was 18.2%, the “Grade ≥3 neutropenia” value (monotherapy group) was 9.1% and the “Grade ≥3 vomiting” value (monotherapy group) was 9.1%. For the same compound, the “maximum tolerated dose (MTD)” value (monotherapy, PO once daily for 21 days every 4 weeks) was 1.25 mg and the “drop in blood counts: onset after start of drug” value (usually seen) was 5 to 7 days.
